According to ChEMBL document CHEMBL1130801, “PF1022A--a novel anthelmintic cyclooctadepsipeptide. Modification and exchange of the N-methyl leucine residues” (Bioorg Med Chem Lett, 1998):

Legend:
[1] = tested on: Ovis aries; test: Anthelmintic activity against Haemonchus contortus nematode in sheep was determined as a function of </= 50% egg reduction after i.v. administration; type: functional
[2] = Partition coefficient in n-octanol/ water system at pH= 7.0; type: physicochemical
[3] = tested on: Ovis aries; test: Anthelmintic activity against Haemonchus contortus nematode in sheep was determined as a function of >/= 90% egg reduction after i.v. administration; type: functional
[4] = tested on: Ovis aries; test: Anthelmintic activity against Haemonchus contortus nematode in sheep was determined as a function of </=50% egg reduction after p.o. administration; type: functional
[5] = tested on: Ovis aries; test: Anthelmintic activity against Haemonchus contortus nematode in sheep was determined as a function of 50-75% egg reduction after p.o. administration; type: functional
[6] = tested on: Ovis aries; test: Anthelmintic activity against Haemonchus contortus nematode in sheep was determined as a function of 75-90% egg reduction after p.o. administration; type: functional
[7] = tested on: Ovis aries; test: Anthelmintic activity against Haemonchus contortus nematode in sheep was determined as a function of >/= 90% egg reduction after p.o. administration; type: functional
[8] = tested on: Ovis aries; test: Anthelmintic activity against Haemonchus contortus nematode in sheep was determined as a function of 75 to >/= 90% egg reduction after p.o. administration; type: functional

Compound	Activity [1]	logD [2]	Activity [3]	also measured
CC(C)C[C@H]1C(=O)O[C@H](Cc2ccccc2)C(=O)N(C)[C@@H](C)C(=O)O[C@@H](C)C(=O)N(C)[C@@H](C)C(=O)O[C@H](Cc2ccccc2)C(=O)N(C)[C@@H](CC(C)C)C(=O)O[C@H](C)C(=O)N1C	0.5	4.6	–	–
CCC[C@H]1C(=O)O[C@H](Cc2ccccc2)C(=O)N(C)[C@@H](CC(C)C)C(=O)O[C@H](C)C(=O)N(C)[C@@H](CC(C)C)C(=O)O[C@H](Cc2ccccc2)C(=O)N(C)[C@@H](CCC)C(=O)O[C@@H](C)C(=O)N1C	–	5.5	0.5	Activity [4]: 0.1
CC(C)[C@H]1C(=O)O[C@H](Cc2ccccc2)C(=O)N(C)[C@@H](C(C)C)C(=O)O[C@H](C)C(=O)N(C)[C@@H](C(C)C)C(=O)O[C@H](Cc2ccccc2)C(=O)N(C)[C@@H](C(C)C)C(=O)O[C@@H](C)C(=O)N1C	–	5.5	1	Activity [5]: 0.25
C[C@@H]1OC(=O)[C@H](Cc2ccccc2)N(C)C(=O)[C@@H](Cc2ccccc2)OC(=O)[C@H](Cc2ccccc2)N(C)C(=O)[C@@H](C)OC(=O)[C@H](Cc2ccccc2)N(C)C(=O)[C@@H](Cc2ccccc2)OC(=O)[C@H](Cc2ccccc2)N(C)C1=O	5	5.9	–	–
CC(C)C[C@H]1C(=O)O[C@H](Cc2ccccc2)C(=O)N(C(C)C)[C@@H](CC(C)C)C(=O)O[C@H](C)C(=O)N(C(C)C)[C@@H](CC(C)C)C(=O)O[C@H](Cc2ccccc2)C(=O)N(C(C)C)[C@@H](CC(C)C)C(=O)O[C@@H](C)C(=O)N1C(C)C	–	8.6	–	Activity [6]: 1
C[C@@H]1OC(=O)[C@H](C)N(C)C(=O)[C@@H](Cc2ccccc2)OC(=O)[C@H](C)N(C)C(=O)[C@@H](C)OC(=O)[C@H](C)N(C)C(=O)[C@@H](Cc2ccccc2)OC(=O)[C@H](C)N(C)C1=O	0.5	3.1	–	–
CC(C)C[C@H]1C(=O)O[C@H](Cc2ccccc2)C(=O)N(C)[C@@H](CC(C)C)C(=O)O[C@H](C)C(=O)N(C)[C@@H](CC(C)C)C(=O)O[C@H](Cc2ccccc2)C(=O)N(C)[C@@H](CC(C)C)C(=O)OC(C)C(=O)N1C (single isomer, unassigned)	–	5.9	0.1	Activity [7]: 0.1
CCN1C(=O)[C@H](C)OC(=O)[C@H](CC(C)C)N(CC)C(=O)[C@@H](Cc2ccccc2)OC(=O)[C@H](CC(C)C)N(CC)C(=O)[C@@H](C)OC(=O)[C@H](CC(C)C)N(CC)C(=O)[C@@H](Cc2ccccc2)OC(=O)[C@@H]1CC(C)C	–	7.2	–	Activity [8]: 0.25
CCC[C@H]1C(=O)O[C@H](Cc2ccccc2)C(=O)N(C)[C@@H](CCC)C(=O)O[C@H](C)C(=O)N(C)[C@@H](CCC)C(=O)O[C@H](Cc2ccccc2)C(=O)N(C)[C@@H](CCC)C(=O)O[C@@H](C)C(=O)N1C	0.5	5.1	–	–
CCC(C)[C@H]1C(=O)O[C@H](Cc2ccccc2)C(=O)N(C)[C@@H](C(C)CC)C(=O)O[C@H](C)C(=O)N(C)[C@@H](C(C)CC)C(=O)O[C@H](Cc2ccccc2)C(=O)N(C)[C@@H](C(C)CC)C(=O)O[C@@H](C)C(=O)N1C (stereo partly specified)	–	6.6	1	Activity [4]: 5
CCCN1C(=O)[C@H](C)OC(=O)[C@H](CC(C)C)N(CCC)C(=O)[C@@H](Cc2ccccc2)OC(=O)[C@H](CC(C)C)N(CCC)C(=O)[C@@H](C)OC(=O)[C@H](CC(C)C)N(CCC)C(=O)[C@@H](Cc2ccccc2)OC(=O)[C@@H]1CC(C)C	–	8.4	–	Activity [5]: 0.25
